Data as given in US12558399B2, “Isocyclosporin A for topical treatment of ocular diseases” (DOMPE' FARMACEUTICI S.P.A., priority 2021, dated 2026).

Columns and labels:
[1] = target: T1, TRPV3 (Homo sapiens, UniProt Q8NET8); experiment: FLIPR assay, TRPV3 inhibition; type: cell-based
T1 sequence (Q8NET8 1-790): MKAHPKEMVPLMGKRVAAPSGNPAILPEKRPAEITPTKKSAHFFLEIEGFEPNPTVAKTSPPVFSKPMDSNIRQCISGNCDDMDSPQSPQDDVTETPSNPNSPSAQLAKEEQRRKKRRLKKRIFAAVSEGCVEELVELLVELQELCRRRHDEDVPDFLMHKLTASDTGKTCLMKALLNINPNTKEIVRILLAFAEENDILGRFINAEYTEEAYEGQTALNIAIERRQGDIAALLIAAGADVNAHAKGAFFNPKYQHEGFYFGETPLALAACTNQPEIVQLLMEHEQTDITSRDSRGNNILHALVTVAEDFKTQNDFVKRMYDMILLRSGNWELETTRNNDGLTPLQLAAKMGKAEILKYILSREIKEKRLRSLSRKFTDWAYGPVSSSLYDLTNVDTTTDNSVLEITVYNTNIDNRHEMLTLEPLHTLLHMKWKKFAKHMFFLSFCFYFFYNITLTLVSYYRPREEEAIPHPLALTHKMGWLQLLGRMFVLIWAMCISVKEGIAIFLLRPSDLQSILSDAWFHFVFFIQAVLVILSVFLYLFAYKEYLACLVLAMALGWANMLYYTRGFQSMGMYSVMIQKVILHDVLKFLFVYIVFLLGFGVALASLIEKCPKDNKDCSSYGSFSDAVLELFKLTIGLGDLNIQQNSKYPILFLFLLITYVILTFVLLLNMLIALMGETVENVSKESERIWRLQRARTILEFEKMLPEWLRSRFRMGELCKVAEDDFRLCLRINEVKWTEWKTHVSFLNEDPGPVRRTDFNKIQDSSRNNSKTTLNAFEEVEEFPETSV
From the text: The FLIPR assay is used to screen ion channel targets using membrane permeable fluorescent dyes. In particular, ion channel targets with significant Ca permeability, produce an increase in intracellular calcium that can be measured using calcium-sensitive dyes (Michelle R. Arkin et al. FLIPR™ Assays for GPCR and Ion Channel Targets. Assay Guidance Manual [Internet]. Bethesda (MD): Eli Lilly & Company and the National Center for Advancing Translational Sciences; 2004).
(§1) TRPV3 is an ionic channel that plays an important role in itching and inflammation, which are two characterizing aspects of ocular surface diseases such as VKC and AKC.
(§2) In details, human TRP cells are trypsinized, counted and seeded in black, clear-bottomed 96 well plates at a density of 50,000 cells per well and incubated overnight. Next day, media is removed from cell plates and 25 μl assay buffer is added. Red membrane potential or Calcium 5 dye solution (10 μl) is added to the wells and incubated at 37° C. for 1 hour. TRPV3, TRPML2 and TRPC4 are tested using the membrane potential dye.
(§3) Dye solution is made up in assay buffer. Compound dilutions are performed in 100% DMSO or dH2O then transferred to intermediate dilutions (5% DMSO/assay buffer or 5% dH2O/assay buffer) for a short time (<10 minutes) just before adding to the cell plate.
The plates are placed in the FLIPR and fluorescence monitored every 1.52 seconds. After 20 seconds 10 μl of the appropriate standard agonist is added and the fluorescence monitored for 5 minutes at ex/em: 488 nm/510-570 nm.
Reference agonists and antagonists have been tested against each channel to check that the value is within the acceptable range in order to validate the assays.
Percentage activation and inhibition values of the test compound and reference compounds has been evaluated.

[2] = target: T2, TRPML2 (Homo sapiens, UniProt Q8IZK6); experiment: FLIPR assay, TRPML2 inhibition; type: cell-based
T2 sequence (Q8IZK6 1-566): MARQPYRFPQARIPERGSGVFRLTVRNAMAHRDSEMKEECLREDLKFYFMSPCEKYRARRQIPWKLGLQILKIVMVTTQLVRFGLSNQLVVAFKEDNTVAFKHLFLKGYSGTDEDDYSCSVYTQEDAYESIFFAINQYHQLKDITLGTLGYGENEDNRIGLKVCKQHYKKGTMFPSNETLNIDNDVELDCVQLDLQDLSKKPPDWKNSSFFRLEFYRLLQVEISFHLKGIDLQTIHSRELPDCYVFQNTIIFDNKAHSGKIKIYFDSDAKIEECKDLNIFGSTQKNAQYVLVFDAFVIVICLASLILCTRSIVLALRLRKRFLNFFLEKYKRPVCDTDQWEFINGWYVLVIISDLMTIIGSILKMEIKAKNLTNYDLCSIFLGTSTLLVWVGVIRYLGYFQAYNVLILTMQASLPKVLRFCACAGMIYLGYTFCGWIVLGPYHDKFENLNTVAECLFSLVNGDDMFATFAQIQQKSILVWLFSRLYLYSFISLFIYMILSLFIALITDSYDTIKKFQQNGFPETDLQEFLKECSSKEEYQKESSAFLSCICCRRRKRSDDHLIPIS
Description: The FLIPR assay is used to screen ion channel targets using membrane permeable fluorescent dyes. […]
as §2, §3

[3] = test system: eye of healthy rabbits; details: rabbit, in vivo
[4] = test system: tear secretion; experiment: Tear secretion by modified Schirmer test in scopolamine-treated mice; type: in vivo; details: mouse, day 22 and day 25, compared between treated groups
Description: In details, 15 mice (N=5 per group) were randomly assigned at baseline to 3 groups and dry eye was induced by treatment with a subcutaneous injection protocol of 0.5 mg/0.2 ml scopolamine hydrobromide, as previously described (Yeh S et al. Invest Ophthalmol Vis Sci, 2003, 44 (1): 124-9). […] In the treatment groups, ten microliters of the test formulations were instilled in each mouse three times a day in both eyes starting at Day 1 after the first scopolamine injection for 25 days. The treatments were encoded, and the group allocation was blinded to the technician administering the treatment, and to the researcher assessing the outcome of the experiment. Group identification was uncovered at the end of the analysis. Tear secretion was also measured in all animals by modified Schirmer test at day 22 and at day 25, as described in Rossi S. et al. Arch Ital Biol. 2012 March; 150 (1): 15-21.

[5] = target: T3, TRPC4 (Homo sapiens, UniProt Q9UBN4); experiment: FLIPR assay, TRPC4 activation; type: cell-based; details: 30 μM
T3 sequence (Q9UBN4 1-977): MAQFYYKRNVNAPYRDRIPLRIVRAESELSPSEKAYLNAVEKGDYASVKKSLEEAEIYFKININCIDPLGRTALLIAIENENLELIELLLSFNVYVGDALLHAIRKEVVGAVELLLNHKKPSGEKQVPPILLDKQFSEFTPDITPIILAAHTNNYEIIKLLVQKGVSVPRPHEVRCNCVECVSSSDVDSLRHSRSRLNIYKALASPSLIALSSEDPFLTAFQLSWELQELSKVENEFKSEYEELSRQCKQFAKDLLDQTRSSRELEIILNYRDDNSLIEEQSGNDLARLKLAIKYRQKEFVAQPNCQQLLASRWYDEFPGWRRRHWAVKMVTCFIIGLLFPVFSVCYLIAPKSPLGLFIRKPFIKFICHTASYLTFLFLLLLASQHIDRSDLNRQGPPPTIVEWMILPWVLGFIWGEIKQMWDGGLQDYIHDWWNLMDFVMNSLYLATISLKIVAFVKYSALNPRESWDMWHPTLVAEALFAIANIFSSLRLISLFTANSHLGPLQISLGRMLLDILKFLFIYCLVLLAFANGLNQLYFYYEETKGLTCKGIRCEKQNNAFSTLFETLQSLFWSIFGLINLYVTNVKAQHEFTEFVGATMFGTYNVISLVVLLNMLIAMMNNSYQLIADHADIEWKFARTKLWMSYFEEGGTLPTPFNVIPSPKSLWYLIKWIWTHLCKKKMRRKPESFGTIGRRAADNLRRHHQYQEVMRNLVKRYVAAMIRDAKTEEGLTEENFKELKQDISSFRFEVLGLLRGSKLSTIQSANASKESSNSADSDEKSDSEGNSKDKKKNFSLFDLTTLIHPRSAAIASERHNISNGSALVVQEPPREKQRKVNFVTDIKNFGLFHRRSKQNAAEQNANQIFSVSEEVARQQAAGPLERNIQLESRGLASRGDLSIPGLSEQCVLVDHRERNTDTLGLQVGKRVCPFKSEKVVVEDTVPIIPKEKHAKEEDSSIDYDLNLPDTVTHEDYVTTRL
Description: The FLIPR assay is used to screen ion channel targets using membrane permeable fluorescent dyes.
as §1, §2, §3
After 20 seconds IsoCsA, CsA or standard agonist are added to the wells and the fluorescence monitored for 5 minutes at ex./em.

[6] = mouse, in vivo
[7] = 56 μM, reference agonist, considered equal to 0%
[8] = 2 μM, agonist, considered equal to 0%

NCCOB(c1ccccc1)c1ccccc1 [2-APB, 2-aminoetoxy diphenyl borate]
TRPV3 Inhibition % Mean [1, 7]: 0% | TRPV3 Inhibition % n = 1 [1, 7]: 0% | TRPV3 Inhibition % n = 2 [1, 7]: 0%

[Ca+2].[Cl-].[Cl-] [CaCl2]
TRPML2 Inhibition % Mean [2, 8]: 0% | TRPML2 Inhibition % n = 1 [2, 8]: 0% | TRPML2 Inhibition % n = 2 [2, 8]: 0%

[Gd+3] [Gd3, Gadolinium]
TRPML2 Inhibition % Mean ([2]; 4 mM, antagonist): 89.6% | TRPML2 Inhibition % n = 1 ([2]; 4 mM, antagonist): 88.2% | TRPML2 Inhibition % n = 2 ([2]; 4 mM, antagonist): 90.9%

N.N.N.N.N.N.N.N.N.N.N.N.N.N.[Cl-].[Cl-].[Cl-].[Cl-].[Cl-].[Cl-].[O-2].[O-2].[Ru+3].[Ru+3].[Ru+4] [RR, ruthenium red]
TRPV3 Inhibition % Mean ([1]; 100 μM, reference antagonist): 91.7% | TRPV3 Inhibition % n = 1 ([1]; 100 μM, reference antagonist): 90.2% | TRPV3 Inhibition % n = 2 ([1]; 100 μM, reference antagonist): 93.2%

isocyclosporin A
frequency of the winking [3]: 5±1 | tear secretion [4]: significantly higher levels | TRPV3 Inhibition % Mean ([1]; 30 μM): 60.1% | TRPV3 Inhibition % n = 1 ([1]; 30 μM): 63.7% | TRPV3 Inhibition % n = 2 ([1]; 30 μM): 56.5% | ability to antagonize TRPV3 relative to cyclosporin A ([1]; 30 μM): more than 4 fold | effect on activation of TRPC4 [5]: does not have any effect on activation of this channel | mean level in Conjunctiva [6]: 20 ± 7 ng/mg | mean level in Cornea [6]: 15 ± 5 ng/mg | mean level in Intraocular tissues (combined) [6]: 2 ± 1 ng/mg | variability of tissue levels within different animals with the same treatment [6]: significantly lower variability | TRPML2 Inhibition % Mean ([2]; 30 μM): 71.2% | TRPML2 Inhibition % n = 1 ([2]; 30 μM): 63.9% | TRPML2 Inhibition % n = 2 ([2]; 30 μM): 78.5% | ability to antagonize TRPML2 in comparison with cyclosporin A ([2]; 30 μM): more than double
